# Source: ChEMBL document CHEMBL3885881, “DrugMatrix”
# Species on record: Rattus norvegicus
# Assay: DrugMatrix - Regimen: Daily Repeat
# Type: toxicity, organism-based, Sprague-Dawley
# Design: regimen Daily Repeat, gender Male, age 6-8 weeks
# Conditions: in vivo, po, route oral GAVAGE, […]; for ABSOLUTE BASOPHIL / ABSOLUTE EOSINOPHIL / ABSOLUTE LYMPHOCYTE / ABSOLUTE MONOCYTE / ABSOLUTE SEGMENTED NEUTROPHIL / BASOPHIL / EOSINOPHIL / ERYTHROCYTE COUNT / HEMATOCRIT / HEMOGLOBIN / LEUKOCYTE COUNT / LYMPHOCYTE / MEAN CORPUSCULAR HEMOGLOBIN / MEAN CORPUSCULAR HEMOGLOBIN CONCENTRATION / MEAN CORPUSCULAR VOLUME / MONOCYTE / NEUTROPHIL / NUCLEATED RED BLOOD CELLS / PLATELET COUNT: tissue Blood; for ALANINE AMINOTRANSFERASE / ALBUMIN / ALKALINE PHOSPHATASE / ASPARTATE AMINOTRANSFERASE / BLOOD UREA NITROGEN / CARBON DIOXIDE / CHLORIDE / CHOLESTEROL / CREATINE PHOSPHOKINASE / CREATININE / GLUCOSE / LACTATE DEHYDROGENASE / LIPASE / PHOSPHORUS / POTASSIUM / SODIUM / TOTAL BILIRUBIN / TOTAL PROTEIN / URIC ACID: tissue Plasma
# [1] = 0 mg/kg, 72 h, dose level Control, time 3 day
# [2] = 0 mg/kg, dose level Control, time 7 day
# [3] = 130 mg/kg, 72 h, dose level Low, time 3 day
compound,measurement,setting,value
CCOC(=O)C(C)(C)Oc1ccc(Cl)cc1 [CLOFIBRATE],ABSOLUTE BASOPHIL,[1],0 CELLS/uL
same,ABSOLUTE EOSINOPHIL,[1],37.33 CELLS/uL
same,ABSOLUTE LYMPHOCYTE,[1],6295.33 CELLS/uL
same,ABSOLUTE MONOCYTE,[1],122.17 CELLS/uL
same,ABSOLUTE SEGMENTED NEUTROPHIL,[1],861.83 CELLS/uL
same,BASOPHIL,[1],0%
same,EOSINOPHIL,[1],0.5%
same,ERYTHROCYTE COUNT,[1],5.2 x10E6/uL
same,HEMATOCRIT,[1],32.58%
same,HEMOGLOBIN,[1],12.95 G/DL
same,LEUKOCYTE COUNT,[1],7.32 x10E3/uL
same,LYMPHOCYTE,[1],86%
same,MEAN CORPUSCULAR HEMOGLOBIN,[1],24.93 pg
same,MEAN CORPUSCULAR HEMOGLOBIN CONCENTRATION,[1],39.77 G/DL
same,MEAN CORPUSCULAR VOLUME,[1],62.65 fL
same,MONOCYTE,[1],1.67%
same,NEUTROPHIL,[1],11.83%
same,NUCLEATED RED BLOOD CELLS,[1],0 /100WBC
same,PLATELET COUNT,[1],1029 x10E3/uL
same,ALANINE AMINOTRANSFERASE,[1],63.67 u/L
same,ALBUMIN,[1],4.12 G/DL
same,ALKALINE PHOSPHATASE,[1],329.83 u/L
same,ASPARTATE AMINOTRANSFERASE,[1],77.67 u/L
same,BLOOD UREA NITROGEN,[1],18 mg/dL
same,CARBON DIOXIDE,[1],29.67 mmol/L
same,CHLORIDE,[1],102.67 MEQ/L
same,CHOLESTEROL,[1],64.5 mg/dL
same,CREATINE PHOSPHOKINASE,[1],178.67 u/L
same,CREATININE,[1],0.18 mg/dL
same,GLUCOSE,[1],163.83 mg/dL
same,LACTATE DEHYDROGENASE,[1],75.83 u/L
same,LIPASE,[1],10 u/L
same,PHOSPHORUS,[1],8.28 mg/dL
same,POTASSIUM,[1],4.79 MEQ/L
same,SODIUM,[1],142.22 MEQ/L
same,TOTAL BILIRUBIN,[1],0.22 mg/dL
same,TOTAL PROTEIN,[1],5.78 G/DL
same,URIC ACID,[1],0.87 mg/dL
same,ABSOLUTE BASOPHIL,[2],0 CELLS/uL
same,ABSOLUTE EOSINOPHIL,[2],19 CELLS/uL
same,ABSOLUTE LYMPHOCYTE,[2],7803.5 CELLS/uL
same,ABSOLUTE MONOCYTE,[2],117.83 CELLS/uL
same,ABSOLUTE SEGMENTED NEUTROPHIL,[2],1093 CELLS/uL
same,BASOPHIL,[2],0%
same,EOSINOPHIL,[2],0.17%
same,ERYTHROCYTE COUNT,[2],5.84 x10E6/uL
same,HEMATOCRIT,[2],35.75%
same,HEMOGLOBIN,[2],13.87 G/DL
same,LEUKOCYTE COUNT,[2],9.03 x10E3/uL
same,LYMPHOCYTE,[2],87.17%
same,MEAN CORPUSCULAR HEMOGLOBIN,[2],23.78 pg
same,MEAN CORPUSCULAR HEMOGLOBIN CONCENTRATION,[2],38.8 G/DL
same,MEAN CORPUSCULAR VOLUME,[2],61.25 fL
same,MONOCYTE,[2],1.17%
same,NEUTROPHIL,[2],11.5%
same,NUCLEATED RED BLOOD CELLS,[2],0 /100WBC
same,PLATELET COUNT,[2],1098.67 x10E3/uL
same,ALANINE AMINOTRANSFERASE,[2],66 u/L
same,ALBUMIN,[2],4.3 G/DL
same,ALKALINE PHOSPHATASE,[2],291.83 u/L
same,ASPARTATE AMINOTRANSFERASE,[2],80.5 u/L
same,BLOOD UREA NITROGEN,[2],15.67 mg/dL
same,CARBON DIOXIDE,[2],30 mmol/L
same,CHLORIDE,[2],101.67 MEQ/L
same,CHOLESTEROL,[2],69.67 mg/dL
same,CREATINE PHOSPHOKINASE,[2],363.33 u/L
same,CREATININE,[2],0.25 mg/dL
same,GLUCOSE,[2],146.5 mg/dL
same,LACTATE DEHYDROGENASE,[2],219.67 u/L
same,LIPASE,[2],11.33 u/L
same,PHOSPHORUS,[2],10.08 mg/dL
same,POTASSIUM,[2],5.22 MEQ/L
same,SODIUM,[2],144.67 MEQ/L
same,TOTAL BILIRUBIN,[2],0.12 mg/dL
same,TOTAL PROTEIN,[2],6.33 G/DL
same,URIC ACID,[2],0.75 mg/dL
same,ABSOLUTE BASOPHIL,[3],0 CELLS/uL
same,ABSOLUTE EOSINOPHIL,[3],0 CELLS/uL
same,ABSOLUTE LYMPHOCYTE,[3],6441.67 CELLS/uL
same,ABSOLUTE MONOCYTE,[3],98 CELLS/uL
same,ABSOLUTE SEGMENTED NEUTROPHIL,[3],743.67 CELLS/uL
same,BASOPHIL,[3],0%
same,EOSINOPHIL,[3],0%
same,ERYTHROCYTE COUNT,[3],5.19 x10E6/uL
same,HEMATOCRIT,[3],32.77%
same,HEMOGLOBIN,[3],13.27 G/DL
same,LEUKOCYTE COUNT,[3],7.28 x10E3/uL
same,LYMPHOCYTE,[3],88.83%
same,MEAN CORPUSCULAR HEMOGLOBIN,[3],25.65 pg
same,MEAN CORPUSCULAR HEMOGLOBIN CONCENTRATION,[3],40.57 G/DL
same,MEAN CORPUSCULAR VOLUME,[3],63.17 fL
same,MONOCYTE,[3],1.33%
same,NEUTROPHIL,[3],9.83%
same,NUCLEATED RED BLOOD CELLS,[3],0 /100WBC
same,PLATELET COUNT,[3],1091.67 x10E3/uL
same,ALANINE AMINOTRANSFERASE,[3],69.83 u/L
same,ALBUMIN,[3],4.22 G/DL
same,ALKALINE PHOSPHATASE,[3],373.67 u/L
same,ASPARTATE AMINOTRANSFERASE,[3],86 u/L
same,BLOOD UREA NITROGEN,[3],16.5 mg/dL
same,CARBON DIOXIDE,[3],30.17 mmol/L
same,CHLORIDE,[3],101.83 MEQ/L
same,CHOLESTEROL,[3],48.17 mg/dL
same,CREATINE PHOSPHOKINASE,[3],463.67 u/L
same,CREATININE,[3],0.14 mg/dL
same,GLUCOSE,[3],170.83 mg/dL
same,LACTATE DEHYDROGENASE,[3],85.33 u/L
same,LIPASE,[3],9.67 u/L
same,PHOSPHORUS,[3],8.43 mg/dL
same,POTASSIUM,[3],5.04 MEQ/L
same,SODIUM,[3],142.75 MEQ/L
same,TOTAL BILIRUBIN,[3],0.18 mg/dL
same,TOTAL PROTEIN,[3],5.87 G/DL
same,URIC ACID,[3],0.93 mg/dL
